In ChEMBL document CHEMBL1151022, “Modified triphosphates of carbocyclic nucleoside analogues: Synthesis, stability towards alkaline phosphatase and substrate properties for some DNA polymerases” (Bioorg Med Chem Lett, 1996):

Experiment: Compound was evaluated for its stability to dephosphorylation.
Type: physicochemical

Row | half-life | SMILES
1 | < 0.0167 h | Cc1cn([C@H]2C[C@H](N=[N+]=[N-])[C@@H](CO[P@](=O)(O)O[P@](=O)(O)OP(=O)(O)O)O2)c(=O)[nH]c1=O [ZIDOVUDINE TRIPHOSPHATE]
2 | > 168 h | Nc1ncnc2c1ncn2[C@H]1C[C@H](OCP(=O)(O)OP(=O)(O)O)[C@H]2C[C@H]21
3 | 0.833 h | Nc1ncnc2c1ncn2[C@H]1C[C@H](O)[C@@H](COP(=O)(O)OP(=O)(O)OP(=O)(O)O)O1
4 | 1 h | Nc1nc2c(ncn2[C@H]2C[C@H](O)[C@@H](COP(=O)(O)OP(=O)(O)OP(=O)(O)O)O2)c(=O)[nH]1 [DEOXYGUANOSINE TRIPHOSPHATE]
5 | > 168 h | Nc1nc(O)c2ncn([C@@H]3C=C[C@H](OCP(=O)(O)OP(=O)(O)C(Br)(Br)P(=O)(O)O)C3)c2n1
6 | 4.5 h | Nc1ncnc2c1ncn2[C@@H]1C[C@@H](OCP(=O)(O)OP(=O)(O)O)[C@@H]2C[C@@H]21
7 | > 168 h | Nc1ncnc2c1ncn2[C@H]1C[C@H](OCP(=O)(O)CP(=O)(O)O)[C@H]2C[C@H]21
8 | > 168 h | Nc1ncnc2c1ncn2[C@@H]1C[C@@H](OCP(=O)(O)CP(=O)(O)O)[C@@H]2C[C@@H]21
9 | 3 h | Nc1ncnc2c1ncn2[C@@H]1C=C[C@H](OCP(=O)(O)OP(=O)(O)OP(=O)(O)O)C1
10 | 2 h | Nc1ncnc2c1ncn2[C@H]1C=C[C@@H](OCP(=O)(O)OP(=O)(O)OP(=O)(O)O)C1
11 | > 168 h | Nc1ncnc2c1ncn2[C@@H]1C=C[C@H](OCP(=O)(O)OP(=O)(O)C(Br)(Br)P(=O)(O)O)C1
12 | 4 h | Nc1nc(O)c2ncn([C@@H]3C=C[C@H](OCP(=O)(O)OP(=O)(O)OP(=O)(O)O)C3)c2n1
